Read-outs that look alike come from different tables or passages of the source.
Legend:
HeLa cells [1] = conditions: 100 μg/mL
Protocol: As a model to examine the efficacy of 5-aminolevulinic acid-conjugated upconverting particles as described herein, particles prepared as described herein (having an 80 mol % Yb content), a 3-(4,5-dimethylthiazol-2-yl)-2,5-diphenyltetrazolium bromide (MTT) proliferation assay was conducted to determine inhibition of cell proliferation using photodynamic therapy with the nanoparticles prepared as described herein. In the cell proliferation assay, HeLa cells were exposed to 5-aminolevulinic acid-conjugated upconverting particles and various controls (all 100 μg/mL) for 4 h and the cells were then irradiated by irradiation of continuous wave 980 nm light at 1 W/cm^2. The results of the assay are shown in FIG. 8, which depicts cell viability as a function of irradiation time.
Then, impact of the lanthanide-doped upconverting nanoparticles on 5-ALA-induced photodynamic therapy was evaluated. […] Cells exposed to these control nanoparticles were irradiated at a biocompatible low power density of 0.35 W/cm^2.
A 96-well microtiter plate seeded with 1×10^4 HeLa cells/well was incubated overnight at 37° C. with 5% CO2. Cells were subsequently exposed to (i) 5-aminolevulinic acid functionalized upconverting nanoparticles comprising 80 mol % ytterbium (ALA-UCNPs, 100 μg/mL), (ii) hydrazide functionalized upconverting nanoparticles (no 5-ALA) (Hyd-UCNPs, 100 μg/mL), (iii) free 5-aminolevulinic acid (ALA, 100 μg/mL) or (iv) PBS (growth medium control) and then irradiated with CW 980 nm laser diode at 1 W/cm^2 for 0, 5, 10, or 20 min. After overnight incubation, cells were labeled with 12 mM solution of MTT in PBS for 4 h. Finally, the media was aspirated and replaced with 50 μL DMSO and cell viability was quantified by formazan absorption determined by a plate reader at 540 nm.
FIG. 8: Plots showing the viability of HeLa cells irradiated with CW 980 nm light at 1 W/cm^2 power density.
FIG. 9: Plots showing the viability of HeLa cells irradiated with CW 980 nm light at 0.35 W/cm^2 power density. […]

[2] = 5-Aminolevulinic acid loading determination by HPLC; assay type: physicochemical; conditions: HPLC of supernatants, back-calculation
From the text: FT-IR spectral analysis confirmed that the conjugation of 5-ALA to the nanoparticles was via a hydrazone linkage as shown in panels (d) and (e) of FIG. 7, which show (d) full and (e) detailed spectra for polyacrylic acid-coated upconverting nanoparticles, (PAA-UCNPs), hydrazide-functionalized upconverting nanoparticles (Hyd-UCNPs) and 5-ALA-conjugated upconverting nanoparticles. On the spectrum for Poly(acrylic) acid-functionalized UCNPs (PAA-UCNPs), the peak at 1636 cm^−1 is attributed to the resonance of the carboxyl groups. […]
FT-IR spectra were recorded on a Nicolet Nexus FT-IR spectrometer, using the SMART iTR™ for ATR measurements. The upconversion photoluminescence spectra were measured by a SPEX FluoroMax®-3 spectrofluorimeter (Horiba) (spectral resolution of 1 nm, emission slit of 5 nm, and integral period of 0.1 s) excited at 980 nm using a fiber-coupled laser diode introduced to the sample chamber of the spectrofluorimeter. […] The size distribution of the samples was determined by dynamic light scattering (DLS) equipped with a Zetasizer Nano-ZS (He—Ne laser wavelength at 633 nm) and an auto-titrator (Malvern Instruments, Malvern, UK). The absorbance for the MTT experiment and the fluorescence for DCFDA staining experiment was found using a microplate reader (Molecular Devices Co., Menlo Park, Calif.). […]

4T1 tumors = assay: In vivo deep tumor photodynamic therapy treatment, tumor volume; design: species or system Balb/c mice; conditions: intratumoral
Protocol: In vivo testing was conducted in subcutaneous tumors grown on Balb/c mice models to evaluate the effect of photodynamic therapy treatment using the upconversion nanoparticles described herein. The tumor volume reduction effect of a red light laser ranging from ˜635-685 nm (PpIX's activation region) and 980 nm light irradiation (activation wavelength of the upconverting nanoparticles described herein) was compared at a biocompatible level of 0.5 W/cm^2.
Female Balb/c mice were purchased from Nanjing Peng Sheng Biological Technology Co. Ltd. and used under protocols approved by Soochow University Laboratory Animal Center. 4T1 cells (1×10^6) suspended in 40 μL of PBS were subcutaneously injected into the back of each female Balb/c mouse. After about 6 days, the mice bearing 4T1 tumors were treated when the tumor volume reached about 50 mm^3.
(§1) An optical fiber-coupled 980 nm high power laser diode (Hi-Tech Optoelectronics Co., Ltd. Beijing, China) was used to irradiate tumors at a power density of about 0.5 W/cm^2 for 40 min. (1 min. interval after each minute of irradiation). The tumor sizes were measured by a caliper every other day and calculated as the volume (tumor length)×(tumor width)^2/2. The body weight of mice was also measured with every tumor measurement and percent change was calculated by the formula (observed body weight)/(body weight on day 0)×100%.
FIGS. 14(a) and 14(b). FIG. 14(a): Plots of the in vivo volume of tumors exposed to various controls and ALAUCNPs with red and near-infrared irradiation (0.5 W/cm^2) in simulated deep tumors. […] Statistical significance was determined from one-way t tests; significance (*) was based on p<0.05 and p>0.05 for not significant (**) pairs. There was no statistical difference between treatments with ALA-UCNPs with no pork whether red or near infra-red light was used. […] FIG. 14(b) is a diagram of in vivo photodynamic therapy treatment with red or near infra-red light conducted inserting pork tissue between the laser and the mice tumors to simulate treatment of deep tumors.

HeLa cells [3] = assay: Simulated deep-tissue photodynamic therapy, MTT assay with pork tissue between laser and cells; assay type: cell-based; conditions: 100 μg/mL; for cell viability: CW 980 nm 1 W/cm^2, 20 min
Protocol: Photodynamic therapy of a deep-set tumor condition using the 5-aminolevulinic acid conjugated upconverting nanoparticles with an 80% ytterbium ratio was simulated by placing pieces of pork tissue of varying thickness (representing a patient's flesh) between a near infra-red laser and HeLa cells exposed to the upconverting nanoparticles, as shown in FIG. 12(a). The cells were analyzed for cell viability using an MTT assay. After 20 min. of irradiation at 1 W/cm^2, for all pork thicknesses, the cells exposed the 5-aminolevulinic acid conjugated nanoparticles as disclosed herein had cell viabilities that were reduced significant to the control hydrazide-functionalized upconverting nanoparticles (Hyd-UCNPs). In the absence of pork (0 mm), cell viability was less than 20%, in the presence of 6 mm pork, cell viability was less than 50%, and even with 12 mm pork, cell viability was still reduced to below 80% compared to the control. This establishes and validates the feasibility of using upconverting nanoparticles as a near infra-red-to-red transducer for prodrug photodynamic therapy at a deep-tissue level (up to about 1 cm or greater).
Finally, the red-emitting upconverting nanoparticle system containing an ytterbium ratio of 80% was compared with the known upconverting nanoparticle β/β core/shell red-emitting nanoparticles at a deep tissue level with a biocompatible low power density 0.35 W/cm^2 for laser irradiation. […] The 5-aminolevulinic acid conjugated nanoparticles described herein having an ytterbium ratio of 80% achieved 40% cell death even through 1.2 cm of pork. The ability of the presently-disclosed lanthanide-doped upconverting nanoparticles' to induce significant phototherapeutic effect with such low power excitation yet thick superficial tissue makes it a major step forward in photodynamic therapy materials.
FIGS. 12(a) and 12(b): FIG. 12(a) Photograph of the setup for simulated photodynamic therapy using an in vitro MTT assay. FIG. 12(b): Plots of HeLa cell viability for cells covered with 0, 6, and 12 mm pork tissue on top of the cells and irradiated with CW 980 nm light at a 1 W/cm^2 power density for 20 min.
FIG. 13: Plots of HeLa cell viability for cells covered with 0, 6, and 12 mm pork tissue on top of the cells and irradiated with CW 980 nm light at a 0.35 W/cm^2 power density for 20 min.

[4] = Body mass change of mice in in vivo PDT treatment groups; design: species or system Balb/c mice; conditions: control and treatment groups, after 14 days
Protocol: as §1
FIG. 15 is a plot of body mass change of mice in in vivo PDT treatment groups with UCNP and light exposure after 14 days. […]

[5] = Hydrodynamic size by dynamic light scattering; assay type: physicochemical; conditions: dynamic light scattering in PBS
Protocol: Dynamic light scattering was used to determine that the hydrodynamic size of the 5-ALA-conjugated nanoparticles was about 62 nm as shown in FIG. 6.
FT-IR spectra were recorded on a Nicolet Nexus FT-IR spectrometer, using the SMART iTR™ for ATR measurements. The upconversion photoluminescence spectra were measured by a SPEX FluoroMax®-3 spectrofluorimeter (Horiba) (spectral resolution of 1 nm, emission slit of 5 nm, and integral period of 0.1 s) excited at 980 nm using a fiber-coupled laser diode introduced to the sample chamber of the spectrofluorimeter. Cells were imaged using a Nikon Eclipse TE 2000 microscope, equipped with a Nuance CCD camera capable of imaging. The light source was a fiber-coupled laser diode emitting at 980 nm, with the fiber introduced through the entrance port of the microscope. The size distribution of the samples was determined by dynamic light scattering (DLS) equipped with a Zetasizer Nano-ZS (He—Ne laser wavelength at 633 nm) and an auto-titrator (Malvern Instruments, Malvern, UK). The absorbance for the MTT experiment and the fluorescence for DCFDA staining experiment was found using a microplate reader (Molecular Devices Co., Menlo Park, Calif.). 5-ALA concentration was monitored by HPLC (Varian ProStar) for loading efficiency data.

[6] = test system: singlet oxygen production in HeLa cells; assay: Singlet oxygen detection by DCFDA fluorescence (imaging and plate reader); assay type: cell-based; conditions: 100 μg/mL, CW 980 nm 1 W/cm^2, 0, 5, 10 min irradiation
From the text: To investigate the mechanism of the results from the above mentioned experiments, cells were stained with 2′,7′-dichlorofluorescein diacetate (DCFDA), a fluorescent indicator for singlet oxygen generation, and imaged using fluorescence microscopy. When DCFDA diffuses into the cell it is […] into a non-fluorescent compound by cellular esterases. Reactive oxygen species (ROS) oxidize the non-fluorescent compound to 2′, 7′-dichlorofluorescein (DCF), which has bright green fluorescence. […] See images (a), (b) and (c) of FIG. 10. […] See images (d), (e) and (f) of FIG. 10. The data were corroborated by quantifying the singlet oxygen production by measuring the fluorescence intensity of the DCFDA using 96-well microtiter plate reader. Both DCFDA fluorescence imaging and microtiter plate measurement indicate effective prodrug delivery and subsequent PpIX activation by the red-emitting upconverting nanoparticles provided by the present disclosure.
Glass-bottom confocal dishes seeded with 1×10^6 HeLa cells were incubated overnight at 37° C. with 5% CO2. […]
FIGS. 10(a), 10(b), 10(c), 10(d), 10(e) and 10(f). Fluorescence microscopy images showing detection of singlet oxygen production in cells by the fluorescence of DCFDA.

Substance | cell killing (HeLa cells [1]; CW 980 nm 0.35 W/cm^2) | loading capacity for 5-ALA [2] | viability of cells (HeLa cells [1]; 4 h exposure, CW 980 nm 1 W/cm^2, 10 min irradiation) | cell death (HeLa cells [1]; CW 980 nm 0.35 W/cm^2, 20 min irradiation) | killing rate (HeLa cells [1]; CW 980 nm 1 W/cm^2, 10 min irradiation) [%] | tumor reduction, 980 nm light with 12 mm pork versus red light with 6 mm pork (4T1 tumors; 0.5 W/cm^2) | tumor volume, treatment with NIR versus red light (4T1 tumors; 0.5 W/cm^2, no pork) | tumor reduction (4T1 tumors; 980 nm 0.5 W/cm^2, 6 or 12 mm of pork tissue above the tumor) | therapeutic effect (4T1 tumors; red light irradiation 0.5 W/cm^2, pork tissue above the tumor) | cell viability (HeLa cells [3]; 6 mm pork) | cell viability (HeLa cells [3]; 12 mm pork, compared to the control) | cell viability (HeLa cells [3]; absence of pork (0 mm)) | cell death (HeLa cells [3]; through 1.2 cm of pork, CW 980 nm 0.35 W/cm^2, 20 min) [%] | body mass change [4] | hydrodynamic size [5] | DCFDA fluorescence (singlet oxygen generation) [6]
β-NaYF4:Yb(20%),Er(2%)@β-NaYF4 ALA [reference compound] | no cell killing | ~4.5 µmol/mg | – | – | – | – | – | – | – | – | – | – | – | – | – | –
α-NaYF4:Yb(80%),Er(2%)@CaF2 ALA [ALA-UCNPs] | – | about 4.5 μmol/mg | about 30% | more than 60% | ~70 | significantly more effective | no statistically significant difference | about 150 mm^3 | no noticeable therapeutic effect | less than 50% | below 80% | less than 20% | 40 | no significant difference across the groups | about 62 nm | intensifying DCFDA fluorescence over irradiation time

— patent US9956426B2, “Upconverting nanoparticles” (priority 2015, dated 2018)
